Like-named read-outs stand apart in the source and are kept apart here. Bridge positions count the residues as written; N and C are the ends. Square brackets hold non-standard residues; d marks the D form. Peptide text beside a SMILES is read from it. Cit = NC(=O)NCCC[C@H](N)C(=O)O
Assays:
human neutrophils = assay: Ca-ionophore stimulated neutrophils, citrullinated H3 immunostaining and confocal microscopy / immunoblot; type: cell-based; conditions: sheet Figure_3G, Ca-I + peptide
Method: Peripheral venous blood was isolated from consenting healthy adult volunteers in heparin tubes as previously described. Briefly, blood samples were on Histopaque 1119 (Sigma-Aldrich) and then centrifuged for 20 min at 800 × g. The plasma was collected and centrifuged for a second time for 20 min at 800 × g. The neutrophil layer was collected and washed in Hyclone Hank’s Balanced Salt Solution (HBSS) -Ca, -Mg, -Phenol red (GE Healthcare) supplemented with 10 mM HEPES (Invitrogen) 0.1% FBS and further purified with a discontinuous Percoll (GE Healthcare) gradient consisting of layers with densities of 85, 80, 75, 70 and 65% and centrifuged for 20 min at 800 × g. Neutrophil-enriched layers were then collected and washed, and neutrophil purity was assessed using flow cytometry.
About 5 × 10^4 sorted neutrophils were seeded in 24-well cell culture plates containing glass coverslips in HyClone HBSS +Ca, +Mg, - Phenol red (GE Healthcare) supplemented with 10 mM HEPES (Invitrogen). Neutrophils were stimulated with 5 µM Ca-Ionophore (Sigma) and fixed for 20 min at room temperature with 2% paraformaldehyde at RT. Cells were then washed and permeabilized with 0.5% Triton X-100 in PBS. Non-specific binding was blocked with 2% BSA (Sigma) and 2% donkey serum (Sigma) in PBS. Samples were stained with DAPI (Life Technologies), the rabbit anti-CitH3 (Abcam; ab5103 1:500) and donkey anti-rabbit alexa488 (Invitrogen; A21206). Fluorescence imaging was performed on a Leica TCS SP8 inverted confocal microscope using sequential scan in between frames mode with a 20x objective.
Neutrophil samples were boiled in a sodium dodecyl sulphate (SDS) buffer containing dithiothreitol (DTT) and run on a polyacrylamide gel electrophoresis (SDS-PAGE) using Criterion TGX precast gels (Any-KD; Bio-Rad Laboratories). Proteins were then transferred to a PVDF membrane (Bio-Rad Laboratories) via semi-dry transfer. The membrane was blocked with 5% BSA (Fisher Scientific) in Tris-buffered saline with 0.1% Tween-20 (TBS-T). Levels of citrullinated histone H3, total H3 and myeloperoxidase (MPO) were assessed by incubating membranes in either anti-histone H3 citrulline R2 + R8 + R17 (Abcam; ab5103 1:1000), anti-histone H3 (Millipore; 07-690 1:10000) or anti-MPO (DAKO; A0398 1:2500) overnight at 4 °C, respectively. For cell lysate-based assays and pull-down assays, membranes were incubated as above with anti-hPADI4 (Abcam; ab50332; 1:1000 in 5% BSA/TBS-T), anti-Bcr (Cell Signalling #3902S; 1:1000 in 3% milk/TBS-T) and anti-Impdh2 (Cell Signalling #57068S; 1:1000 in 3% milk/TBS-T). Membranes were washed in 0.1% TBS-T and subsequently incubated with goat anti-rabbit HRP or anti-goat (Fisher Scientific) for 1 h, followed by final washes in 0.1% TBS-T. Membranes were imaged with enhanced chemiluminescent substrate (ECL) (Thermo Fisher) on a Bio-Rad imager.

hPADI4 = biological target: T1, hPADI4 (Homo sapiens, UniProt Q9UM07); assay: COLDER assay, inhibition of PADI4 at 10 mM CaCl2 (substrate BAEE); type: biochemical
T1 construct: PADI4 (residues 1–663); Avi-Tag (unbiotinylated); made in house; host or cells: E. coli BL21(DE3) without BirA
Method: PADI4 activity was assessed using the COLDER assay[43] that measures the formation of urea-containing compounds (e.g. citrulline). The reaction was carried out in a 96-well plate with a final volume of 50 µl. His-PADI4 (50 nM) was incubated with different concentrations of peptides (100 µM to 0.3 nM) in the presence of CaCl2 (from 10 mM to 0.001 mM as specified) for 10 min. The reaction was started by the addition of 10 mM N^α-Benzoyl-L-arginine ethyl ester hydrochloride (BAEE, Merck). After 30 min, the reaction was quenched with EDTA (50 mM final concentration). For colour development, 200 µl of COLDER solution, consisting of 1 volume of solution A (80 mM diacetyl monoxime/2,3-butanedione monoxime (Merck) and 2 mM thiosemicarbazide (Acros Organics)) and 3 volumes of solution B (3 M H3PO4, 6 M H2SO4 and 2 mM NH4Fe(SO4)2) were added to each well and the mixture was heated at 95 °C for 15 min. After cooling to RT, absorbance at 540 nm was measured, and citrulline concentration was determined using a standard curve of citrulline standards. All studies were performed within the linear range of PADI4 activity, and data analysis was performed using Prism GraphPad (Dotmatics). Data are presented as the average ± standard error of the mean from at least two independent replicates.

hPADI4-stable mES cells = assay: High content microscopy of citrullinated histone H3 (H3Cit) in hPADI4-stable mES cells; type: cell-based, mouse; conditions: KSR/2i 3 h, Fig. S7B
Method: HaLo-GFP-mito HeLa cells were grown in DMEM (Gibco) supplemented with 10% foetal bovine serum (FBS), penicillin/streptomycin (100 µg/ml) and puromycin (1 µg/ml) at 37 °C, 5% CO2. HaLo-GFP-mito HeLa cell line[82] was profiled by short tandem repeat analysis (STR) and tested negative for mycoplasma by the Cell Services Technology Platform at the Francis Crick Institute. E14 –mouse embryonic stem cells (Cambridge Stem Cell Institute, UK) were cultured in plates coated with 1% gelatine in GMEM supplemented with 10% foetal calf serum (FCS) batch-tested for ES cell culture (Gibco), 0.1 mM non-essential amino acids, 2 mM L-glutamine, 1 mM sodium pyruvate, 0.1 mM β-mercaptoethanol and 50 ng/mL leukaemia inhibitory factor (LIF) (ESGRO, Millipore). For PADI4 activation, cells were cultured in GMEM containing 10% knockout serum replacement (KSR, Life Technologies), 1% FCS batch-tested for ES cell culture (Gibco), 0.1 mM non-essential amino acids, L-glutamine, 1 mM sodium pyruvate, 0.1 mM β-mercaptoethanol, 50 ng/mL LIF (ESGRO, Millipore), 1 μM PD0325901 (AxonMedChem) and 3 μM CHIR99021 (AxonMedChem). For the generation of E14 mES stably expressing human PADI4 (hPADI4-stable), human PADI4 cDNA was inserted into ES E14 cells using the piggyBac transposon system. The Gateway system was used to clone human PADI4 into the piggyBac vector using primers PADI4_AttB1_F and PADI4_AttB2_R (Table S4). pPB-CAG-CTRL (empty vector) or pPB-CAG-hPADI4 vectors […] were transfected with the piggyBac transposase (pPBase) expression vector, pCAGPBase […], by lipofection according to the manufacturer’s instructions (Lipofectamine 2000, Invitrogen). E14 cells constitutively expressing the hygromycin resistance gene and human PADI4 were selected and expanded in media containing […] hygromycin.
E14 cells were seeded onto 96-well PerkinElmer cell carrier ultra plates (Phenoplates) coated with 0.1% gelatine, at 25,000 cells per well and grown overnight at 37 °C, 5% CO2. Outer wells were excluded but medium was added to minimise any edge effects. […]

T1 sequence (Q9UM07 whole entry, the tested form may be a part): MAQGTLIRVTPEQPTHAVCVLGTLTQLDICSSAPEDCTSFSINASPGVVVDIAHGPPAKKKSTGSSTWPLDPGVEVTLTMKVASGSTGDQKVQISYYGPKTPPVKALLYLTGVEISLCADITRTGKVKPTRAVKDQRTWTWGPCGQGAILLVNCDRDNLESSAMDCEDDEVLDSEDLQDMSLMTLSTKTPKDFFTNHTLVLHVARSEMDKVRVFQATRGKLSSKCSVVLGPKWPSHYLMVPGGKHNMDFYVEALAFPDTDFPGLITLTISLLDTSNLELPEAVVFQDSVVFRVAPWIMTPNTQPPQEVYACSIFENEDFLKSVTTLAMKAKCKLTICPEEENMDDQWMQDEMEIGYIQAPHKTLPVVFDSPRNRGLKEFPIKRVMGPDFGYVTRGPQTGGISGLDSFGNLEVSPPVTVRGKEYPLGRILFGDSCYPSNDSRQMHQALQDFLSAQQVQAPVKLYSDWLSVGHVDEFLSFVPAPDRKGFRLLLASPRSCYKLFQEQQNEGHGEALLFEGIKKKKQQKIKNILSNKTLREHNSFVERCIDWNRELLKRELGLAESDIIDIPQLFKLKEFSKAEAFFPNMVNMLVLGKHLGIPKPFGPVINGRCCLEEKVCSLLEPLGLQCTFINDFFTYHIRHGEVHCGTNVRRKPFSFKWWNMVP

## N=C(N)NCCC[C@@H]1NC(=O)[C@H](CC(=O)O)NC(=O)[C@@H](Cc2ccc(O)cc2)NC(=O)CSC[C@@H](C(=O)NCC(N)=O)NC(=O)[C@H](Cc2ccc(O)cc2)NC(=O)[C@H](CCCCN)NC(=O)[C@@H]2CCCN2C(=O)[C@H](Cc2c[nH]cn2)NC(=O)[C@H](CCCNC(=N)N)NC(=O)[C@H](Cc2ccc(O)cc2)NC(=O)[C@H](Cc2c[nH]cn2)NC(=O)[C@H](Cc2c[nH]cn2)NC1=O [PADI4-3i] ({CH2CO}-[dY]DRHHYRHPKYCG-NH2; thioether N-12)
Human neutrophils; replicate 1 (first data row)
  Figure 3G quantification in Ca-I stimulated neutrophils (citrullinated H3 immunostaining): 33.3333
Human neutrophils; replicate 2 (second data row)
  Figure 3G quantification in Ca-I stimulated neutrophils (citrullinated H3 immunostaining): 50
Human neutrophils; replicate 3 (third data row)
  Figure 3G quantification in Ca-I stimulated neutrophils (citrullinated H3 immunostaining): 41.6667
Human neutrophils; replicate 4 (fourth data row)
  Figure 3G quantification in Ca-I stimulated neutrophils (citrullinated H3 immunostaining): 50

## N=C(N)NCCC[C@@H]1NC(=O)[C@@H](Cc2ccc(O)cc2)NC(=O)CSC[C@@H](C(=O)NCC(N)=O)NC(=O)[C@H](Cc2ccc(O)cc2)NC(=O)[C@H](CCCCN)NC(=O)[C@@H]2CCCN2C(=O)[C@H](Cc2c[nH]cn2)NC(=O)[C@H](CCCNC(N)=O)NC(=O)[C@H](Cc2ccc(O)cc2)NC(=O)[C@H](Cc2c[nH]cn2)NC(=O)[C@H](Cc2c[nH]cn2)NC(=O)[C@H](CC(=O)O)NC1=O [PADI4_3.R7Cit] ({CH2CO}-[dY]RDHHY[Cit]HPKYCG-NH2; thioether N-12)
hPADI4; average of 3 replicates (Stdev in separate column), COLDER assay, 10 mM CaCl2, substrate BAEE, source data of Figure 2F, read-out: IC50s Average
  IC50: 83.2 nM

## N=C(N)NCCC[C@@H]1NC(=O)[C@@H](Cc2ccc(O)cc2)NC(=O)CSC[C@@H](C(=O)NCC(N)=O)NC(=O)[C@H](Cc2ccc(O)cc2)NC(=O)[C@H](CCCCN)NC(=O)[C@@H]2CCCN2C(=O)[C@H](Cc2c[nH]cn2)NC(=O)[C@H](Cc2c[nH]c3ccccc23)NC(=O)[C@H](Cc2ccc(O)cc2)NC(=O)[C@H](Cc2c[nH]cn2)NC(=O)[C@H](Cc2c[nH]cn2)NC(=O)[C@H](CC(=O)O)NC1=O [PADI4_3.20] ({CH2CO}-[dY]RDHHYWHPKYCG-NH2; thioether N-12)
hPADI4; COLDER inhibition assay, mean of the 3 experiments printed beside it (stdev in a separate column), read-out: IC50
  IC50: 79.1 nM

## NC(=O)[C@H](CCCN=C(N)CCl)NC(=O)c1ccccc1 [Cl-amidine, reference compound]
hPADI4-stable mES cells
  mean H3Cit intensity with increasing doses of inhibitor: dose-response read-outs

— article PMC11555231 (Nature Communications, 2024)
